Data as given in patent US20250186442A1, “Obicetrapib and Ezetimibe Combination Treatment and Fixed Dose Pharmaceutical Compositions” (NewAmsterdam Pharma B.V., priority 2022, published 2025).

What was measured:
ApoA1 = settings: TA-8995-03; 10 mg daily dose, mild dyslipidemia; cited from earlier work
[1] = TA-8995-07, healthy males; cited from earlier work
ApoB = experiment: ROSE2 phase 2b clinical trial - ApoB; type: in vivo, human; settings: obicetrapib 10 mg, ezetimibe 10 mg
Procedure: The secondary objectives of this study include the following, in hierarchical order: • To evaluate the effect of obicetrapib 10 mg monotherapy compared with placebo, when used as an adjunct to high-intensity statin therapy, on LDL-C at Day 84; • To evaluate the effect of obicetrapib 10 mg+ezetimibe 10 mg combination therapy compared with placebo, when used as an adjunct to high-intensity statin therapy, on ApoB at Day 84; and • To evaluate the effect of obicetrapib 10 mg monotherapy compared with placebo, when used as an adjunct to high-intensity statin therapy, on ApoB at Day 84.
This study will be a placebo-controlled, double-blind, randomized, Phase 2 study to evaluate the efficacy, safety, and tolerability of obicetrapib 10 mg, both in combination with ezetimibe 10 mg and as monotherapy, as an adjunct to high-intensity statin therapy. This study will take place at approximately 20 sites in the United States.
Up to 2 weeks after the Screening Visit, participants will return to the site on Day 1 (Visit 2) and confirm study eligibility before being randomized and beginning treatment. Approximately 114 eligible participants (38 participants per treatment group) will be randomized in a 1:1:1 ratio to 1 of the following treatment groups: • Combination therapy: Obicetrapib 10 mg+ezetimibe 10 mg (administered as one 10 mg obicetrapib tablet and one 10 mg ezetimibe capsule); • Obicetrapib monotherapy: Obicetrapib 10 mg (administered as one 10 mg obicetrapib tablet and 1 placebo capsule); or • Placebo (administered as 1 placebo tablet and 1 placebo capsule).
The secondary efficacy endpoints include the following, in hierarchical order: • Percent change from Day 1 to Day 84 in LDL-C for the obicetrapib 10 mg monotherapy • treatment group compared with the placebo group; • Percent change from Day 1 to Day 84 in ApoB for the obicetrapib 10 mg+ezetimibe 10 mg • combination treatment group compared with the placebo group; and • Percent change from Day 1 to Day 84 in ApoB for the obicetrapib 10 mg monotherapy treatment group compared with the placebo group.
Blood samples for the lipid profile must be obtained under fasting conditions (ie, after the participant has fasted for approximately 10 hours). For the purposes of this study, fasting will be defined as nothing by mouth except water and any essential medications. If a participant is not fasting, the Investigator should reschedule the visit as soon as possible. LDL-C level will be calculated using the Friedewald equation unless TG≥400 mg/dL or LDL-C≤50 mg/dL; in both cases, LDL-C level will be measured directly by preparative ultracentrifugation, also referred to as beta quantification. Additionally, LDL-C will be measured by preparative ultracentrifugation, also referred to as beta quantification, at baseline (Visit 2) and at the end of the 12-week Treatment Period (Visit 4) for all participants.
The Modified ITT (mITT) Population will include all participants in the ITT Population who receive at least 1 dose of any study drug and have a baseline value for the LDL-C assessment. Any efficacy measurement obtained during the Safety Follow-up Visit (Visit 5) after a participant permanently discontinues the study drug or after a participant receives an excluded medication and/or procedure will be removed from the mITT analysis. Treatment classification will be based on the randomized treatment. The mITT Population will be used for the primary analysis of all efficacy endpoints.

In the case of `CCOC(=O)N1c2ccc(C(F)(F)F)cc2[C@@H](N(Cc2cc(C(F)(F)F)cc(C(F)(F)F)c2)c2ncc(OCCCC(=O)O)cn2)C[C@H]1CC` [Obicetrapib, {4-[(2-{[3,5-bis(trifluoromethyl)benzyl][(2R,4S)-1-(ethoxycarbonyl)-2-ethyl-6-(trifluoromethyl)-1,2,3,4-tetrahydroquinolin-4-yl]amino}pyrimidin-5-yl)oxy]butanoic acid}], the ApoA1 increase (ApoA1) is given as 63.4%, the absorption [1] is given as “steadily absorbed” and the “principal route of excretion” value [1] is given as “in the feces”. For the same compound, the “ApoB Change from Baseline to Day 28, Mean” value (ApoB; Exploratory Population) was -24.2 mg/dL, the “ApoB Change from Baseline to Day 28, Median” value (ApoB; Exploratory Population) was -23.0 mg/dL and the “ApoB Change from Baseline to Day 84, Mean” value (ApoB; Exploratory Population) was -20.5 mg/dL. The “ApoB Change from Baseline to Day 84, Median” value (ApoB; Exploratory Population) was -21.5 mg/dL, the “ApoB Day 28, Mean” value (ApoB; Exploratory Population) was 65.4 mg/dL and the “ApoB Day 28, Median” value (ApoB; Exploratory Population) was 64.5 mg/dL. The “ApoB Day 84, Mean” value (ApoB; Exploratory Population) was 69.1 mg/dL, the “ApoB Day 84, Median” value (ApoB; Exploratory Population) was 65.0 mg/dL and the “ApoB Percent Change from Baseline to Day 28 (%), Mean” value (ApoB; Exploratory Population) was −26.00%. The “ApoB Percent Change from Baseline to Day 28 (%), Median” value (ApoB; Exploratory Population) was −26.00%, the “ApoB Percent Change from Baseline to Day 84 (%), Mean” value (ApoB; Exploratory Population) was −21.73% and the “ApoB Percent Change from Baseline to Day 84 (%), Median” value (ApoB; Exploratory Population) was −24.20%. The “ApoB Change from Baseline to Day 28, Mean” value (ApoB; mITT Population) was -18.9 mg/dL, the “ApoB Change from Baseline to Day 28, Median” value (ApoB; mITT Population) was -20.0 mg/dL and the “ApoB Change from Baseline to Day 84, Mean” value (ApoB; mITT Population) was -10.4 mg/dL. The “ApoB Change from Baseline to Day 84, Median” value (ApoB; mITT Population) was -14.5 mg/dL, the “ApoB Day 28, Mean” value (ApoB; mITT Population) was 73.4 mg/dL and the “ApoB Day 28, Median” value (ApoB; mITT Population) was 66.0 mg/dL. The “ApoB Day 84, Mean” value (ApoB; mITT Population) was 82.4 mg/dL, the “ApoB Day 84, Median” value (ApoB; mITT Population) was 72.0 mg/dL and the “ApoB Percent Change from Baseline to Day 28 (%), Mean” value (ApoB; mITT Population) was −19.16%. The “ApoB Percent Change from Baseline to Day 28 (%), Median” value (ApoB; mITT Population) was −23.10%, the “ApoB Percent Change from Baseline to Day 84 (%), Mean” value (ApoB; mITT Population) was −9.50% and the “ApoB Percent Change from Baseline to Day 84 (%), Median” value (ApoB; mITT Population) was −17.35%.
